Reference: PubChem BioAssay AID330 (DTP/NCI, 2004)
Values joined by “and” are separate entries in the source; they are usually repeats but may differ in a detail not shown here. Equal entries are not always repeated. Toxic doses and inconclusive results are not listed. Rule for the calls: active = survival T/C of 150% or more; inactive = T/C below 125% in these data.

Tested on: P388 leukemia ip, CD2F1 mice, survival T/C
Assay: NCI In Vivo Anticancer Drug Screen. Data for tumor model P388 Leukemia (intraperitoneal) in CD2F1 (CDF1) mice
Conditions: endpoint: median survival time, higher = longer survival
How it was run: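 Mice carrying the transplanted tumor received test compound or vehicle. Survival was recorded in each group, and the value is the treated-group measurement divided by that of the vehicle-treated control group.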

[1] = dose: 100.0 mg/kg/injection, schedule: Q01DX009 (ip), vehicle: saline with Tween-80
[2] = dose: 200.0 mg/kg/injection, schedule: Q01DX009 (ip), vehicle: saline with Tween-80
[3] = dose: 60.0 mg/kg/injection, schedule: Q01DX005 (ip), vehicle: saline with Tween-80
[4] = dose: 120.0 mg/kg/injection, schedule: Q01DX005 (ip), vehicle: saline with Tween-80
[5] = dose: 240.0 mg/kg/injection, schedule: Q01DX005 (ip), vehicle: saline with Tween-80
[6] = dose: 50.0 mg/kg/injection, schedule: Q01DX005 (ip), vehicle: Klucel (hydroxypropylcellulose) (HPC)
[7] = dose: 50.0 mg/kg/injection, schedule: Q01DX009 (ip), vehicle: saline
[8] = dose: 100.0 mg/kg/injection, schedule: Q01DX009 (ip), vehicle: saline
[9] = dose: 200.0 mg/kg/injection, schedule: Q01DX009 (ip), vehicle: saline
[10] = dose: 60.0 mg/kg/injection, schedule: Q01DX005 (ip), vehicle: saline
[11] = dose: 120.0 mg/kg/injection, schedule: Q01DX005 (ip), vehicle: saline
[12] = dose: 240.0 mg/kg/injection, schedule: Q01DX005 (ip), vehicle: saline
[13] = dose: 6.25 mg/kg/injection, schedule: Q01DX009 (ip), vehicle: saline with Tween-80
[14] = dose: 12.5 mg/kg/injection, schedule: Q01DX009 (ip), vehicle: saline with Tween-80
[15] = dose: 25.0 mg/kg/injection, schedule: Q01DX009 (ip), vehicle: saline with Tween-80

Measured: T/C

CN=C(NC)c1cccc(NC(=O)/C=C\c2ccc(/C=C/C(=O)Nc3cccc(C(=NC)NC)c3)cc2)c1
inactive: dose: 1.56 mg/kg/injection, schedule: Q01DX005 (ip), vehicle: saline with Tween-80 121 % of control

O=C1CCC(=O)N1CC(O)COc1ccccc1 (stereo not given)
inactive: [1] 95 % of control | [2] 95 % of control | dose: 400.0 mg/kg/injection, schedule: Q01DX009 (ip), vehicle: saline with Tween-80 100 % of control

O=C1c2ccccc2-c2ccc(N=Cc3c[nH]c4ccccc34)cc21
inactive: dose: 50.0 mg/kg/injection, schedule: Q01DX005 (ip), vehicle: saline + Tween-80 + alcohol 104 % of control | dose: 100.0 mg/kg/injection, schedule: Q01DX005 (ip), vehicle: saline + Tween-80 + alcohol 98 % of control | dose: 200.0 mg/kg/injection, schedule: Q01DX005 (ip), vehicle: saline + Tween-80 + alcohol 98 % of control

CCOC(=O)c1[nH]cnc1N
inactive: dose: 15.0 mg/kg/injection, schedule: Q01DX005 (ip), vehicle: saline with Tween-80 104 % of control | dose: 30.0 mg/kg/injection, schedule: Q01DX005 (ip), vehicle: saline with Tween-80 101 % of control | [3] 104 % of control and 106 % of control | [4] 100 % of control | [5] 104 % of control

NCCNC(c1ccccc1)C(O)c1ccccc1 (stereo not given)
inactive: dose: 50.0 mg/kg/injection, schedule: Q04DX002 (ip), vehicle: Klucel (hydroxypropylcellulose) (HPC) 102 % of control | dose: 100.0 mg/kg/injection, schedule: Q04DX002 (ip), vehicle: Klucel (hydroxypropylcellulose) (HPC) 100 % of control

CCN(CC)CCNC(=O)Cc1cc(O)c2c(c1O)C(=O)c1ccccc1C2=O
inactive: dose: 100.0 mg/kg/injection, schedule: Q04DX003 (ip), vehicle: saline with Tween-80 106 % of control | dose: 200.0 mg/kg/injection, schedule: Q04DX003 (ip), vehicle: saline with Tween-80 106 % of control | dose: 400.0 mg/kg/injection, schedule: Q04DX003 (ip), vehicle: saline with Tween-80 106 % of control

COC1CCC(CO)O1 (stereo not given)
inactive: dose: 50.0 mg/kg/injection, schedule: Q01DX009 (ip), vehicle: suspension in saline 100 % of control | dose: 100.0 mg/kg/injection, schedule: Q01DX009 (ip), vehicle: suspension in saline 108 % of control | dose: 200.0 mg/kg/injection, schedule: Q01DX009 (ip), vehicle: suspension in saline 102 % of control

C=C1C(=O)OC2/C=C(\CO)C3OC3C3OC3(C)CC(OC(=O)/C(=C/C)CO)C12 (stereo not given)
inactive: dose: 3.12 mg/kg/injection, schedule: Q01DX005 (ip), vehicle: Klucel (hydroxypropylcellulose) (HPC) 99 % of control and 106 % of control | dose: 6.25 mg/kg/injection, schedule: Q01DX005 (ip), vehicle: Klucel (hydroxypropylcellulose) (HPC) 100 % of control and 107 % of control and 110 % of control | dose: 12.5 mg/kg/injection, schedule: Q01DX005 (ip), vehicle: Klucel (hydroxypropylcellulose) (HPC) 105 % of control and 106 % of control | [6] 100 % of control and 109 % of control

Cc1ccc(Nc2ccc3c4c(cc(=O)n3C)-c3ccccc3C(=O)c24)c(S(=O)(=O)O)c1
inactive: [7] 87 % of control | [8] 91 % of control | [9] 99 % of control | dose: 400.0 mg/kg/injection, schedule: Q01DX009 (ip), vehicle: saline 95 % of control

COC1c2ccccc2CC(c2ccccc2)=NN1C(C)=O (stereo not given)
inactive: [10] 100 % of control | [11] 102 % of control | [12] 97 % of control

CCCCCCCCCCCCSC1=C(Cl)C(=O)C(OC)=C(OC)C1=O
inactive: dose: 6.0 mg/kg/injection, schedule: Q01DX Z (ip), vehicle: saline 103 % of control | [13] 105 % of control | dose: 12.0 mg/kg/injection, schedule: Q01DX Z (ip), vehicle: saline 100 % of control | [14] 108 % of control | [15] 121 % of control | dose: 25.0 mg/kg/injection, schedule: Q01DX Z (ip), vehicle: saline 100 % of control | dose: 50.0 mg/kg/injection, schedule: Q01DX009 (ip), vehicle: saline with Tween-80 119 % of control | dose: 50.0 mg/kg/injection, schedule: Q01DX Z (ip), vehicle: saline 92 % of control

O=S(=O)(OC(F)(F)F)C(F)(F)F
inactive: dose: 24.5 mg/kg/injection, schedule: Q01DX001 (ip), vehicle: Klucel (hydroxypropylcellulose) (HPC) 97 % of control | dose: 49.0 mg/kg/injection, schedule: Q01DX001 (ip), vehicle: Klucel (hydroxypropylcellulose) (HPC) 94 % of control | dose: 98.0 mg/kg/injection, schedule: Q01DX001 (ip), vehicle: Klucel (hydroxypropylcellulose) (HPC) 94 % of control

Oc1ccccc1-c1nc(-c2ccccc2)c(-c2ccccc2)[nH]1
inactive: dose: 100.0 mg/kg/injection, schedule: Q04DX003 (ip), vehicle: Klucel (hydroxypropylcellulose) (HPC) 106 % of control | dose: 200.0 mg/kg/injection, schedule: Q04DX003 (ip), vehicle: Klucel (hydroxypropylcellulose) (HPC) 101 % of control | dose: 400.0 mg/kg/injection, schedule: Q04DX003 (ip), vehicle: Klucel (hydroxypropylcellulose) (HPC) 101 % of control

Cc1ccnc(N=C2N=C(Nc3cc(C)ccn3)c3ccccc32)c1
inactive: [13] 93 % of control | [14] 88 % of control | [15] 99 % of control | [1] 91 % of control | [2] 90 % of control

CN(C)C(=O)NCCCCCCNC(=O)N(C)C
inactive: [7] 105 % of control | [8] 100 % of control | [9] 110 % of control

CC/C(=N\Nc1cc(C)[nH]c(=O)c1)c1ccccc1
inactive: dose: 100.0 mg/kg/injection, schedule: Q01DX001 (ip), vehicle: saline with Tween-80 98 % of control | dose: 200.0 mg/kg/injection, schedule: Q01DX001 (ip), vehicle: saline with Tween-80 86 % of control | dose: 400.0 mg/kg/injection, schedule: Q01DX001 (ip), vehicle: saline with Tween-80 89 % of control

CC(O)CC(c1ccccc1)C(C(=O)O)c1ccccc1 (stereo not given)
inactive: [7] 108 % of control | [8] 101 % of control | [9] 95 % of control

Clc1ccc2ccc3cccnc3c2n1
inactive: dose: 7.5 mg/kg/injection, schedule: Q01DX005 (ip), vehicle: saline 102 % of control | dose: 15.0 mg/kg/injection, schedule: Q01DX005 (ip), vehicle: saline 97 % of control | dose: 30.0 mg/kg/injection, schedule: Q01DX005 (ip), vehicle: saline 93 % of control | [10] 102 % of control | [11] 105 % of control

CCCCCCCCCCCCCCCCCC(=O)N[C@@H](Cc1ccc(N(CCCl)CCCl)cc1)C(=O)NCCCCCC
inactive: dose: 2.12 mg/kg/injection, schedule: Q01DX009 (ip), vehicle: saline 109 % of control | dose: 2.12 mg/kg/injection, schedule: Q03HX008 (ip), vehicle: saline 90 % of control | dose: 4.24 mg/kg/injection, schedule: Q01DX009 (ip), vehicle: saline 113 % of control | dose: 4.24 mg/kg/injection, schedule: Q03HX008 (ip), vehicle: saline 100 % of control | dose: 8.48 mg/kg/injection, schedule: Q03HX008 (ip), vehicle: saline 100 % of control | dose: 16.95 mg/kg/injection, schedule: Q03HX008 (ip), vehicle: saline 100 % of control | dose: 33.9 mg/kg/injection, schedule: Q03HX008 (ip), vehicle: saline 90 % of control | dose: 67.8 mg/kg/injection, schedule: Q03HX008 (ip), vehicle: saline 90 % of control

CC(C)N(C(=O)c1cccc(C(=O)N(C(C)C)C(C)C)n1)C(C)C
inactive: [3] 101 % of control | [4] 95 % of control | [5] 95 % of control

NCc1cccn1OCc1ccccc1
inactive: [3] 100 % of control | [4] 106 % of control | [5] 104 % of control

CCOC(CC#CC(=O)N(C)C)OCC
inactive: [10] 100 % of control | [11] 107 % of control | [12] 101 % of control

N#CCCN(C(=S)Nc1ccc(F)cc1)N1CCCCCC1
inactive: dose: 100.0 mg/kg/injection, schedule: Q04DX003 (ip), vehicle: saline 100 % of control | dose: 200.0 mg/kg/injection, schedule: Q04DX003 (ip), vehicle: saline 107 % of control | dose: 400.0 mg/kg/injection, schedule: Q04DX003 (ip), vehicle: saline 98 % of control

S=C1CC(N2CCCC2)=Nc2ccccc2N1
inactive: [6] 100 % of control | dose: 100.0 mg/kg/injection, schedule: Q01DX005 (ip), vehicle: Klucel (hydroxypropylcellulose) (HPC) 90 % of control | dose: 200.0 mg/kg/injection, schedule: Q01DX005 (ip), vehicle: Klucel (hydroxypropylcellulose) (HPC) 95 % of control

Cc1onc(-c2ccccc2)c1C(=O)c1ccccc1
inactive: [7] 99 % of control | [8] 100 % of control | [9] 99 % of control
